The values that follow come from publication PMC12354831 (Cell Death Discovery, 2025).

One assay concerns U87-MG cells. Kind of assay: CCK-8 IC50 determination in U87-MG cells with or without GLUT3 KD. The note with it: GLUT3 KD vs control, CCK-8, 24 h drug treatment. Type of assay: cell-based, human. The procedure: (§1) The GBM cell line was seeded into a 96-well plate at a density of 5 × 10^3 cells per well and incubated at 37 °C in a humidified atmosphere containing 5% CO2 overnight. […] Following 24 h of drug treatment, 10 µL of CCK-8 reagent was added to each well, and the cells were incubated for an additional 1 h at 37 °C. The absorbance was then measured at 450 nm using a microplate reader.
(§2) In this study, the experimental groups were designated as Group A (cells treated with temozolomide (TMZ) or capecitabine (CAPE)), the control group as Group B (cells treated with DMSO), and the blank control group as Group C ([…]). The cell viability rate was calculated using the formula: (A-C)/(B-C) × 100%, where A, B, and C represent the absorbance values of Group A, Group B, and Group C, respectively.

The next assay deals with U251-MG cells. The assay can be described thus: CCK-8 IC50 determination in U251-MG cells with or without GLUT3 OE. Type of assay: cell-based, human. The note with it: GLUT3 OE vs control, CCK-8, 24 h drug treatment. The procedure:
as §1, §2

On to `Nc1ccn([C@@H]2O[C@H](CO)[C@@H](O)[C@@H]2O)c(=O)n1` [cytarabine], for which the “fold increase of IC50 on GLUT3 knockdown” value in the assay with U87-MG cells is reported as 4.3 fold.

With `Nc1ccn([C@@H]2O[C@H](CO)[C@@H](O)C2(F)F)c(=O)n1` [GEM, gemcitabine], the “fold increase of IC50 on GLUT3 knockdown” value in the assay with U87-MG cells is ~ 1.6 fold. For the same molecule, in the assay with U251-MG cells, the “reduction of IC50 in GLUT3 overexpressing cells compared to control cells” value is given as ~ 81.7%.
